Source: ChEMBL document CHEMBL1201862, “PubChem BioAssay data set” (2004)
Counter-ions that a name gives are not always drawn.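 A five-concentration, 48-hour dose response in 96-well plates underlies each endpoint, interpolated linearly between surrounding concentrations. At the GI50, growth is halved.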 Active and inactive are the calls of the source. Rule as the data show it: active = GI50 up to about 1.1 µM and inactive = higher.

Columns and labels:
Assay in all cases: NCI-60 cell line screen, 48 h
[1] = system: HOP-62
[2] = system: SF-295
[3] = system: ACHN
[4] = system: NCI/ADR-RES
[5] = system: NCI-H522
[6] = system: OVCAR-4
[7] = system: NCI-H23
[8] = system: K562
[9] = system: IGROV-1
[10] = system: HCT-15
[11] = system: MCF7
[12] = system: HL-60
[13] = system: SK-OV-3
[14] = system: 786-0
[15] = system: MDA-MB-435
[16] = system: MDA-N
[17] = system: Malme-3M
[18] = system: TK-10

Row | SMILES | GI50 [1] | GI50 [2] | GI50 [3] | GI50 [4] | GI50 [5] | GI50 [6] | GI50 [7] | GI50 [8] | GI50 [9] | GI50 [10] [µM] | GI50 [11] | GI50 [12] | GI50 [13] | GI50 [14] | GI50 [15] | GI50 [16] | GI50 [17] | GI50 [18]
1 | c1ccc(/C(=N/Nc2ccccn2)c2ncccn2)cc1 | 3.31 µM (inactive) | 3.6 µM (inactive) | 0.112 µM (active) | 1.43 µM (inactive) | < 0.0172 µM (active) | 1.28 µM (inactive) | 1.74 µM (inactive) | 0.121 µM (active) | 2.07 µM (inactive) | 0.526 | 0.175 µM (active) | 0.0524 µM (active) | 2.3 µM (inactive) | 0.8 µM (active) | 2.77 µM (inactive) | 16.5 µM (inactive) | 0.538 µM (active) | –
2 | NC(=O)ON=C1CCN(Cc2ccccc2)CC1 | > 100 µM (inactive) | > 100 µM (inactive) | > 100 µM (inactive) | > 100 µM (inactive) | > 100 µM (inactive) | > 100 µM (inactive) | > 100 µM (inactive) | > 100 µM (inactive) | > 100 µM (inactive) | > 100 | > 100 µM (inactive) | > 100 µM (inactive) | > 100 µM (inactive) | > 100 µM (inactive) | > 100 µM (inactive) | > 100 µM (inactive) | > 100 µM (inactive) | 29.9 µM (inactive)
3 | COc1ccc(Nc2nc3ccccc3nc2-c2cccs2)cc1OC | > 10 µM (inactive) | > 10 µM (inactive) | > 10 µM (inactive) | > 10 µM (inactive) | > 10 µM (inactive) | > 10 µM (inactive) | > 10 µM (inactive) | > 10 µM (inactive) | > 10 µM (inactive) | > 10 | > 10 µM (inactive) | > 10 µM (inactive) | > 10 µM (inactive) | > 10 µM (inactive) | > 10 µM (inactive) | > 10 µM (inactive) | – | > 10 µM (inactive)
4 | Nc1nc(Cl)c(N)c(NCC2(CO)CCC2)n1 | > 100 µM (inactive) | > 100 µM (inactive) | > 100 µM (inactive) | > 100 µM (inactive) | 69.7 µM (inactive) | > 100 µM (inactive) | 94.2 µM (inactive) | > 100 µM (inactive) | > 100 µM (inactive) | > 100 | > 100 µM (inactive) | > 100 µM (inactive) | > 100 µM (inactive) | > 100 µM (inactive) | > 100 µM (inactive) | > 100 µM (inactive) | > 100 µM (inactive) | > 100 µM (inactive)
5 | CCN1C(NN)=NS(=O)(=O)c2ccccc21 | > 100 µM (inactive) | > 100 µM (inactive) | > 100 µM (inactive) | > 100 µM (inactive) | > 100 µM (inactive) | > 100 µM (inactive) | > 100 µM (inactive) | > 100 µM (inactive) | > 100 µM (inactive) | > 100 | > 100 µM (inactive) | > 100 µM (inactive) | > 100 µM (inactive) | > 100 µM (inactive) | > 100 µM (inactive) | > 100 µM (inactive) | – | > 100 µM (inactive)
6 | COC(=O)N1CC[C@@H]2CCC=C(c3cccc4c3OCO4)[C@@H]21 | > 100 µM (inactive) | > 100 µM (inactive) | > 100 µM (inactive) | 54.2 µM (inactive) | > 100 µM (inactive) | 45.4 µM (inactive) | > 100 µM (inactive) | 42.8 µM (inactive) | > 100 µM (inactive) | 93.3 | > 100 µM (inactive) | 30.9 µM (inactive) | > 100 µM (inactive) | > 100 µM (inactive) | > 100 µM (inactive) | > 100 µM (inactive) | > 100 µM (inactive) | 82.8 µM (inactive)
7 | CCOC(=O)Cc1ccc(Nc2nc3cc(C(F)(F)F)ccc3nc2C(=O)OCC)cc1 | 35 µM (inactive) | 63.2 µM (inactive) | 33 µM (inactive) | > 100 µM (inactive) | 50.8 µM (inactive) | 18.9 µM (inactive) | 34.6 µM (inactive) | – | > 100 µM (inactive) | > 100 | 94.4 µM (inactive) | > 100 µM (inactive) | 51.4 µM (inactive) | 23.5 µM (inactive) | > 100 µM (inactive) | > 100 µM (inactive) | > 100 µM (inactive) | 49.3 µM (inactive)
8 | CC(=O)NCc1nc(C#N)c(N)o1 | > 100 µM (inactive) | > 100 µM (inactive) | > 100 µM (inactive) | > 100 µM (inactive) | > 100 µM (inactive) | > 100 µM (inactive) | > 100 µM (inactive) | > 100 µM (inactive) | 8.95 µM (inactive) | > 100 | > 100 µM (inactive) | > 100 µM (inactive) | > 100 µM (inactive) | > 100 µM (inactive) | > 100 µM (inactive) | > 100 µM (inactive) | > 100 µM (inactive) | > 100 µM (inactive)
9 | CCCCOCCOCCOC1=CC(=O)c2c(O)ccc(O)c2C1=O | 1.79 µM (inactive) | 1.68 µM (inactive) | 1.66 µM (inactive) | 2.14 µM (inactive) | 1.63 µM (inactive) | 1.94 µM (inactive) | 1.82 µM (inactive) | 2.5 µM (inactive) | 1.89 µM (inactive) | – | 1.75 µM (inactive) | 2.27 µM (inactive) | > 10 µM (inactive) | 1.6 µM (inactive) | 0.188 µM (active) | 0.167 µM (active) | 0.4 µM (active) | 3.05 µM (inactive)
10 | Oc1ccc(Cl)cc1/C=N/c1cnc2ccccc2c1 | 35.5 µM (inactive) | 36.7 µM (inactive) | > 57.1 µM (inactive) | 27.7 µM (inactive) | > 86.7 µM (inactive) | 27.4 µM (inactive) | 33.9 µM (inactive) | 10.2 µM (inactive) | 16 µM (inactive) | 4.4 | 22.6 µM (inactive) | 4.56 µM (inactive) | 33.3 µM (inactive) | 37.9 µM (inactive) | 36.7 µM (inactive) | 34.7 µM (inactive) | > 70.6 µM (inactive) | > 100 µM (inactive)
11 | N#CCCN(CCCN(C(=O)N(c1ccccc1)c1ccccc1)c1ccccc1)C(=O)Nc1ccccc1 | > 100 µM (inactive) | 76.6 µM (inactive) | 93.3 µM (inactive) | 30.1 µM (inactive) | 58.3 µM (inactive) | 95.1 µM (inactive) | > 100 µM (inactive) | 28.6 µM (inactive) | – | > 100 | 18.2 µM (inactive) | 8.91 µM (inactive) | > 100 µM (inactive) | > 100 µM (inactive) | > 100 µM (inactive) | > 100 µM (inactive) | > 100 µM (inactive) | > 100 µM (inactive)
12 | CC(=O)Oc1c(C)c2c(c3ncccc13)OC(C)C2 (stereo not drawn) | 17.1 µM (inactive) | 14.7 µM (inactive) | 11.8 µM (inactive) | 15.6 µM (inactive) | 4.29 µM (inactive) | 16.3 µM (inactive) | 17.3 µM (inactive) | 10.2 µM (inactive) | 6.98 µM (inactive) | 12.1 | 13.3 µM (inactive) | 7.4 µM (inactive) | 21 µM (inactive) | 12.8 µM (inactive) | 6.14 µM (inactive) | 11 µM (inactive) | 16.3 µM (inactive) | 22 µM (inactive)
13 | CN1C(=O)C(O)CC1c1cccc(F)c1 (stereo not drawn) | > 100 µM (inactive) | > 100 µM (inactive) | > 100 µM (inactive) | > 100 µM (inactive) | > 100 µM (inactive) | > 100 µM (inactive) | > 100 µM (inactive) | > 100 µM (inactive) | > 100 µM (inactive) | > 100 | > 100 µM (inactive) | > 100 µM (inactive) | > 100 µM (inactive) | > 100 µM (inactive) | > 100 µM (inactive) | > 100 µM (inactive) | > 100 µM (inactive) | –
14 | CC1=C(C(=O)OC2CC3CCC2(C)C3(C)C)C2Nc3ccccc3N(C)C2O1 (stereo not drawn) | 3.84 µM (inactive) | 1.72 µM (inactive) | 2.74 µM (inactive) | 2.99 µM (inactive) | 1.93 µM (inactive) | 1.67 µM (inactive) | 2.39 µM (inactive) | 3.66 µM (inactive) | 1.77 µM (inactive) | 2.01 | 2.36 µM (inactive) | 2.1 µM (inactive) | 4.43 µM (inactive) | 2.51 µM (inactive) | 1.54 µM (inactive) | 1.77 µM (inactive) | – | 4.07 µM (inactive)
15 | CCCCCCCCCCCCCCCCOc1ccc(/C=C/C2=[N+](CCCl)CCO2)cc1 | 87.3 µM (inactive) | 55.8 µM (inactive) | > 100 µM (inactive) | 56.1 µM (inactive) | > 100 µM (inactive) | > 100 µM (inactive) | – | 77.3 µM (inactive) | 61.2 µM (inactive) | > 100 | > 100 µM (inactive) | 12 µM (inactive) | > 100 µM (inactive) | 30.8 µM (inactive) | > 100 µM (inactive) | > 100 µM (inactive) | > 100 µM (inactive) | 47.1 µM (inactive)
16 | c1ccc([C@H]2CN3CCSC3=N2)cc1 [LEVAMISOLE HYDROCHLORIDE] | > 100 µM (inactive) | > 100 µM (inactive) | > 100 µM (inactive) | > 100 µM (inactive) | > 100 µM (inactive) | > 100 µM (inactive) | > 100 µM (inactive) | > 100 µM (inactive) | > 100 µM (inactive) | > 100 | > 100 µM (inactive) | > 100 µM (inactive) | > 100 µM (inactive) | > 100 µM (inactive) | > 100 µM (inactive) | > 100 µM (inactive) | > 100 µM (inactive) | –
